Assay results published in US11629154B2, “Tetrahydropyranooxazine derivatives having selective BACE1 inhibitory activity” (SHIONOGI & CO., LTD., priority 2018, dated 2023).

Tests used:
[1] = molecular target: P-gp (MDR1 expressing LLC-PK1 cells) (Homo sapiens (Human), UniProt P08183); test: P-gp substrate test; type: in vitro ADME; settings: MDR1/LLC-PK1 versus LLC-PK1
Experimental: 1. MDR1 expressing LLC-PK1 cells and its parent cells were routinely cultured in Medium A (Medium 199 (Invitrogen) supplemented with 10% FBS (Invitrogen), gentamycin (0.05 mg/mL, Invitrogen) and hygromycin B (100 μg/mL, Invitrogen)) at 37° C. under 5% CO2/[…] gasses. For the transport experiments, these cells were seeded on Transwell (Registered trademark) insert (96-well, pore size: 0.4 μm, Coaster) at a density of 1.4×10^4 cells/insert and added Medium B (Medium 199 supplemented with 10% FBS and gentamycin at 0.05 mg/mL) to the feeder tray. These cells were incubated in a CO2 incubator (5% CO2/[…] gasses, 37° C.) and replace apical and basolateral culture medium every 48-72 hr after seeding. These cells were used between 4 and 6 days after seeding. 2. The medium in the culture insert seeded with MDR1 expressing cells or parent cells were removed by aspiration and rinsed by HBSS. The apical side (140 μL) or basolateral side (175 μL) was replaced with transport buffer containing reference substrates and the present invention and then an aliquot (50 μL) of transport buffer in the donor side was collected to estimate initial concentration of reference substrate and the present invention. After incubation for designed time at 37° C., an aliquot (50 μL) of transport buffer in the donor and receiver side were collected. Assay was performed by duplicate or triplicate. 3. Reference substrate and the present invention in the aliquot was quantified by LC/MS/MS.
Permeated amounts across monolayers of MDR1 expressing and parent cells were determined, and permeation coefficients (Pe) were calculated using Excel 2003 from the following equitation: Pe (cm/sec)=Permeated amount (pmol)/area of cell membrane (cm^2)/initial concentration (nM)/incubation time (sec) Where, permeated amount was calculated from permeation concentration (nM, concentration of the receiver side) of the substance after incubation for the defined time (sec) multiplied by volume (mL) and area of cell membrane was used 0.1433 (cm2).
The efflux ratio was calculated using the following equation: Efflux Ratio=Basolateral-to-Apical Pe/Apical-to-Basolateral Pe The net flux was calculated using the following equation: Net flux=Efflux Ratio in MDR1 expressing cells/Efflux Ratio in parent cells

CYP3A4 = CYP3A4 (Homo sapiens (Human), UniProt P08684); test: CYP3A4(MDZ) MBI test; type: in vitro ADME; settings: pooled human liver microsomes, midazolam 1-hydroxylation, preincubation 0 or 30 minutes
Chain of CYP3A4 (P08684 whole entry): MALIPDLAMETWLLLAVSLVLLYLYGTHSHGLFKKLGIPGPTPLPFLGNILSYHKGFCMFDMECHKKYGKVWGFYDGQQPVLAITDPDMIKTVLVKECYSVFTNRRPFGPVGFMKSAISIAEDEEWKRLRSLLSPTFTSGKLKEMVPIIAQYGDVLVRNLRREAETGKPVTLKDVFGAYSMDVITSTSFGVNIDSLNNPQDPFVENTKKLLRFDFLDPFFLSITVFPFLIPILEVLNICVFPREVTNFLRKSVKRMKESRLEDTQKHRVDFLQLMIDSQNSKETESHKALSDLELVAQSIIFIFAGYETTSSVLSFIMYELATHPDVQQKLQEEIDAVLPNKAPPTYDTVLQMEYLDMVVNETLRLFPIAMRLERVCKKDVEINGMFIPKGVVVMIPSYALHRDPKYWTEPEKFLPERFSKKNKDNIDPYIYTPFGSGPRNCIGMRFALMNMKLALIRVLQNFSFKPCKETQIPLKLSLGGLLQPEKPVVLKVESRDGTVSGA
Experimental: CYP3A4(MDZ) MBI test is a test of investigating mechanism based inhibition (MBI) potential on CYP3A4 inhibition of a compound. CYP3A4 inhibition is evaluated using 1-hydroxylation reaction of midazolam (MDZ) by pooled human liver microsomes as a marker reaction.
The reaction conditions were as follows: substrate, 10 μmol/L MDZ; pre-reaction time, 0 or 30 minutes; substrate reaction time, 2 minutes; reaction temperature, 37° C.; protein content of pooled human liver microsomes, 0.5 mg/mL at pre-reaction time, […] (at 10-fold dilution) at reaction time; concentrations of the compound of the present invention, 1, 5, 10, 20 μmol/L (4 points).
Pooled human liver microsomes in a K-Pi buffer (pH 7.4) and a compound of the present invention solution as a pre-reaction solution were added to a 96-well plate at the composition of the pre-reaction. A part of pre-reaction solution was transferred to another 96-well plate, and diluted 10-fold by a substrate in a K-Pi buffer. NADPH as a co-factor was added to initiate the marker reaction (without preincubation). After a predetermined time of the marker reaction, methanol/acetonitrile=1/1 (v/v) solution was added in order to terminate the marker reaction. On the other hand, NADPH was also added to a remaining pre-reaction solution in order to initiate a pre-reaction (with preincubation). After a predetermined time of a pre-reaction, a part was transferred to another 96-well plate, and diluted 10-fold by a substrate in a K-Pi buffer in order to initiate the marker reaction. After a predetermined time of the marker reaction, methanol/acetonitrile=1/1 (v/v) solution is added in order to terminate the marker reaction. After centrifuged at 3000 rpm for 15 minutes, 1-hydroxymidazolam in the supernatant is quantified by LC/MS/MS.
The sample adding DMSO to a reaction system instead of compound of the present invention solution was adopted as a control (100%) because DMSO is used as a solvent to dissolve a compound of the present invention. Remaining activity (%) was calculated at each concentration of the compound of the present invention added as the solution, and IC50 value was calculated by reverse-presumption using a logistic model with a concentration and an inhibition rate. Shifted IC value was calculated as “IC value without preincubation (0 minutes)/IC value with preincubation (30 minutes)″. When a shifted IC value was 1.5 or more, this was defined as positive. When a shifted IC value was less than 1.1, this was defined as negative.

Metabolic stability test = type: in vitro ADME; settings: human liver microsomes, 37° C., NADPH
Experimental: Using a commercially available pooled human liver microsomes, a compound of the present invention was reacted for a constant time, a remaining rate was calculated by comparing a reacted sample and an unreacted sample, thereby, a degree of metabolism in liver was assessed.
A reaction was performed (oxidative reaction) at 37° C. for 0 minute or 30 minutes in the presence of 1 mmol/L NADPH in 0.2 mL of a buffer (50 mmol/L Tris-HCl pH 7.4, 150 mmol/L potassium chloride, 10 mmol/L magnesium chloride) containing 0.5 mg protein/mL of human liver microsomes. After the reaction, 50 μL of the reaction solution was added to 100 μL of a methanol/acetonitrile=1/1 (v/v), mixed and centrifuged at 3000 rpm for 15 minutes. The compound of the present invention in the supernatant was quantified by LC/MS/MS or solid phase extraction (SPE)MS, and a remaining amount of the compound of the present invention after the reaction was calculated, letting a compound amount at 0 minute reaction time to be 100%.

[2] = molecular target: human ether-a-go-go related gene (hERG) channel (Homo sapiens (Human), UniProt Q12809); test: hERG test; type: cell-based; settings: CHO cells expressing hERG
Chain of human ether-a-go-go related gene (hERG) channel (Q12809 whole entry): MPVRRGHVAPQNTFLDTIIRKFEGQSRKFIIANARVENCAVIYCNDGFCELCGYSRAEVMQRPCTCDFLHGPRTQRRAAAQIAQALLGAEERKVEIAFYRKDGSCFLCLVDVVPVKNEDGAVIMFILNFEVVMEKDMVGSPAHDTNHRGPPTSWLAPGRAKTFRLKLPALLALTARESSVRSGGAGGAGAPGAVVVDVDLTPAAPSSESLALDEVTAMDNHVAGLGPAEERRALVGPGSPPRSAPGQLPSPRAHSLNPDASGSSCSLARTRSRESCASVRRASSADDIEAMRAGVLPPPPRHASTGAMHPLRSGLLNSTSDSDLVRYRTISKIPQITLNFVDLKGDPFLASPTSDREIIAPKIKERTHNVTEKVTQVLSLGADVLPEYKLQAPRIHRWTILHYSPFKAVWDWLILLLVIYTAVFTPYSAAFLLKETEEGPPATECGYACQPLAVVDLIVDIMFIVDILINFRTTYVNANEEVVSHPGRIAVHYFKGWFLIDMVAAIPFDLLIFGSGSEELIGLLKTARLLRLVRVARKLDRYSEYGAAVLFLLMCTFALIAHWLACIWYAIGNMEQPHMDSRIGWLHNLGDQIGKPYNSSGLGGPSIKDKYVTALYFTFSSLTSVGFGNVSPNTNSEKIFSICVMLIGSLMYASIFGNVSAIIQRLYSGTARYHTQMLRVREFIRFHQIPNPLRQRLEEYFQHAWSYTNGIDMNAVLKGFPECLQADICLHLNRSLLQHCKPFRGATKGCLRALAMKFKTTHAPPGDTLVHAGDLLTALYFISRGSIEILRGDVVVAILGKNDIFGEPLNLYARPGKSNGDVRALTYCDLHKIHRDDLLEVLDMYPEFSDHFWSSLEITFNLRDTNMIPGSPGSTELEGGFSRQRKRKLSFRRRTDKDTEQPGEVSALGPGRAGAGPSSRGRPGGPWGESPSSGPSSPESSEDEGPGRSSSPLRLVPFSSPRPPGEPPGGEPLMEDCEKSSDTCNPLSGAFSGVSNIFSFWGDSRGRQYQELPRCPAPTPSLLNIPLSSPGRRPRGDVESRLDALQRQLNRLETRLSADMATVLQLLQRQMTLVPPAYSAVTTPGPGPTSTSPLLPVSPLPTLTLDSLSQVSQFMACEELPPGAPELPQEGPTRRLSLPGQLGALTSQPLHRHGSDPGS
Source text: For the purpose of assessing risk of an electrocardiogram QT interval prolongation, effects on delayed rectifier K+ current (IKr), which plays an important role in the ventricular repolarization process of the compound of the present invention, was studied using CHO cells expressing human ether-a-go-go related gene (hERG) channel.
A cell was retained at a membrane potential of −80 mV by whole cell patch clamp method using an automated patch clamp system (QPatch; Sophion Bioscience A/S). After application of leak potential at −50 mV, IKr induced by depolarization pulse stimulation at +20 mV for 2 seconds and, further, repolarization pulse stimulation at −50 mV for 2 seconds was recorded.
Further, the % inhibition relative to the tail peak current before application of the compound of the present invention was calculated, and compared with the vehicle-applied group (0.1% dimethyl sulfoxide solution) to assess influence of the compound of the present invention on IKr.

Chain of P-gp (MDR1 expressing LLC-PK1 cells) (P08183 whole entry): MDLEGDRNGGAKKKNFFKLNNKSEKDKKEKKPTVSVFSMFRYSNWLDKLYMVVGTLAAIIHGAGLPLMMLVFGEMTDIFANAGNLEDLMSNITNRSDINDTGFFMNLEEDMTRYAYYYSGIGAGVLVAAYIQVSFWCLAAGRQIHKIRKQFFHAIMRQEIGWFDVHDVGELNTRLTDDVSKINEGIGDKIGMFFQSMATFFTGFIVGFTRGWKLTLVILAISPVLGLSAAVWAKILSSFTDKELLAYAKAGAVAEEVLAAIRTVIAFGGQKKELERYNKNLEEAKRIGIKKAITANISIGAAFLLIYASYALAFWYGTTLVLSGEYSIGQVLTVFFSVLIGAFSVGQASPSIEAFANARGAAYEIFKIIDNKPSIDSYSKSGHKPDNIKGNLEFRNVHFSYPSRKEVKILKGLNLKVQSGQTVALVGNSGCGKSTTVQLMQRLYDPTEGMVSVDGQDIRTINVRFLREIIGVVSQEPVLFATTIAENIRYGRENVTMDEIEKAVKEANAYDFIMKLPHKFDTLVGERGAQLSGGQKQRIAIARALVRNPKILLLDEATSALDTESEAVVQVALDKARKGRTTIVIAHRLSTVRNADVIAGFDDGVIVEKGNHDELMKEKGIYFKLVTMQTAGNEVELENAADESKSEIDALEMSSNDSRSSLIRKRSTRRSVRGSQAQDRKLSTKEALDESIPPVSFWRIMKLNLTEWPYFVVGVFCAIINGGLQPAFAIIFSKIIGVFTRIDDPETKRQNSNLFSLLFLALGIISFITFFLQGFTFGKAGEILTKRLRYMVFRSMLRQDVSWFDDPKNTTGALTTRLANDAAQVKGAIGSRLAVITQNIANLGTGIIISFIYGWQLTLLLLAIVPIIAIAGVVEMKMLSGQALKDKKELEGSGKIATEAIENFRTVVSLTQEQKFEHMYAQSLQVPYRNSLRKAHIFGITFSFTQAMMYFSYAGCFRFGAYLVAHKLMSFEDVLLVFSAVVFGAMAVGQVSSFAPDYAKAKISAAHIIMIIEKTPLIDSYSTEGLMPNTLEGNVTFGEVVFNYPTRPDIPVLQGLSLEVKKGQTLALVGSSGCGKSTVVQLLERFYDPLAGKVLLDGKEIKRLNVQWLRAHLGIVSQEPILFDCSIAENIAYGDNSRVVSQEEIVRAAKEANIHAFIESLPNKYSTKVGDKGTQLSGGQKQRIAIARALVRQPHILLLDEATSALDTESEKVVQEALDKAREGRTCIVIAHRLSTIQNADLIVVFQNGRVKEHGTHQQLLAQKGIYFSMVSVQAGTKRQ

SMILES | P-gp ER ratio [1] | MBI MDZ (CYP3A4) | Remaining rate(%) at 30 min (Metabolic stability test) | hERG inhibition (%) at 3 μM [2]
NC1=N[C@](CF)(c2cc(NC(=O)c3ccc(C(F)(F)F)cn3)ccc2F)[C@H]2COCC[C@H]2O1 [Compound I-105] | 7.1 | Negative (When a shifted IC value was less than 1.1, this was defined as negative) | 87.9% | 40.8%
C[C@@H]1C[C@H]2OC(N)=N[C@](CF)(c3cc(NC(=O)c4cnc(OCF)cn4)ccc3F)[C@H]2CO1 [Compound I-008] | 6.2 | Negative (When a shifted IC value was less than 1.1, this was defined as negative) | 94.4% | 18.5%
NC1=N[C@](CF)(c2cc(NC(=O)c3cnc(OC(F)F)cn3)ccc2F)[C@H]2COCC[C@H]2O1 [Compound I-076] | 6.2 | Negative (When a shifted IC value was less than 1.1, this was defined as negative) | 91.7% | 18.5%
NC1=N[C@](CF)(c2cc(NC(=O)c3cnc(OCF)cn3)ccc2F)[C@H]2COCC[C@H]2O1 [Compound I-007] | 5.5 | Negative (When a shifted IC value was less than 1.1, this was defined as negative) | 107% | 6.83%
NC1=N[C@](CF)(c2cc(NC(=O)c3cnc(-n4cncn4)cn3)ccc2F)[C@H]2COCC[C@H]2O1 [Compound I-047] | 4.7 | Negative (When a shifted IC value was less than 1.1, this was defined as negative) | 61.6% | 11.6%
COc1cnc(C(=O)Nc2ccc(F)c([C@@]3(CF)N=C(N)O[C@@H]4CCOC[C@@H]43)c2)cn1 [Compound I-067] | 6.1 | Negative (When a shifted IC value was less than 1.1, this was defined as negative) | 91.4% | 5.39%
C[C@@H]1C[C@H]2OC(N)=N[C@](CF)(c3cc(NC(=O)c4cnc(OCF)cn4)ccc3Cl)[C@H]2CO1 [Compound I-065] | 5.7 | Negative (When a shifted IC value was less than 1.1, this was defined as negative) | 79.6% | 37.8%
